# From US20190038632A1 (BAYER PHARMA AKTIENGESELLSCHAFT, priority 2016, published 2019)
# Where “and” joins values, the source holds several entries; their conditions need not be identical. Equal values may be shown once.
# System: NHL patients
# Assay: clinical study A: copanlisib therapy in NHL patients, best response and PFS, also by baseline tumor gene expression
# Type: in vivo, human
# Conditions: for PFS (Independent*) Days / Best Response (Independent*): one line per subject; for PFS (Independent*) Days: censor status in column beside
# [1] = mantle cell lymphoma patients (N = 2)
# From the text: Best response status and progression-free survival (hereinafter referred to as “PFS”) from independent review assessment were used for gene expression analysis.
# Bioinformatics and statistical analyses were done for all 24 NHL patients.
# A weighted gene expression score (hereinafter referred to as “WGS”) reflecting the overall expression level for each gene set was generated from logistic regression and Cox proportional hazards models to assess the association with response status (best-response-WGS) and PFS (PFS-WGS), respectively.
# Both the best-response-WGS as well as the PFS-WGS were in turn used in logistic regression or Cox regression models to assess the association of either WGS with the endpoints. Moreover, the raw best-response WGS was used to compute non-cross validated AUC estimates for responder (CR+PR) and non-responder (SD+PD) classifications.
compound,measurement,setting,value
COc1c(OCCCN2CCOCC2)ccc2c1N=C(NC(=O)c1cnc(N)nc1)N1CCN=C21 [copanlisib],HR for PFS,"CSTB, median gene expression level as cutoff, p=0.07",3.3 (0.9-12)
same,median PFS days,"CSTB, median gene expression level as cutoff, shorter-PFS group (high expression per text)",74 days
same,HR for PFS,"MT2A, median gene expression level as cutoff, p=0.30",1.3 (0.8-2.2)
same,PFS,NHL patients with low BCR WGS (median cut-off 41.7),62 days
same,HR for PFS,"NOP10, median gene expression level as cutoff, p=0.23",1.9 (0.7-5.4)
same,PFS (Independent*) Days,diffuse large B-cell lymphoma patients (N = 5),56 days and 13 days and 49 days
same,PFS (Independent*) Days,follicular lymphoma patients (N = 10),53 days and 74 days and 28 days
same,Best Response (Independent*),"follicular lymphoma patients (N = 10), data cutoff February 2015",CRu
same,HR for PFS,"high vs low BCR WGS, nominal Cox model p<0.0001",0.035
same,HR for PFS,"high vs low GPR18 expression, nominal Cox model p<0.01",0.17
same,Best Response (Independent*),[1],CRu
same,PFS (Independent*) Days,[1],7 days
same,PFS (Independent*) Days,trans. indolent lymphoma patients (N = 2),16 days and 42 days
